Patent US20220162610A1, “NOVEL RNA TRANSCRIPT” (PTC Therapeutics, Inc., priority 2020, published 2022)

How the values were obtained:
[1] = Oral pharmacokinetics in WT littermates of the BACHD colony; assay type: in vivo, mouse; details: single oral dose of 10 mg/kg
Protocol: Oral pharmacokinetics (PK) of compounds was evaluated in WT littermates from the BACHD colony (FVB background). Mice were treated with test compounds (10 mg/kg) by oral gavage in 0.5% hydroxypropylmethyl cellulose (HPMC) with 0.1% Tween 80. Blood was collected by terminal cardiac puncture at specified time points (3 mice per time point) and centrifuged to generate plasma. Brain tissue was collected at the time of blood collection and homogenized in water. Protein was precipitated from plasma and brain homogenates with acetonitrile, methanol mixture (5:1, v:v) containing an internal standard that is a close analog of the test compounds. The mixture was filtered through an EMD Millipore MultiScreen™ Solvinert Filter Plate (MSRLN04, Millipore, Burlington, Mass.). Calibration standards were prepared in the same matrix and processed with the testing samples. Filtrates were analysed using Acquity ultra performance liquid chromatography (UPLC) system (Waters Corporation) tandem with Xevo TQ-s Spectrometer (Waters Corporation). Samples were injected on to a Waters UPLC Acquity BEH C18 Column (2.1*50 mm, 1.7 μm) maintained at 50° C. The injection volume was 3 μL and the mobile phase flow rate was 0.45 mL/min. The mobile phase consisted of 2 solvents: A) 0.1% formic acid in water and B) 0.1% formic acid in acetonitrile. […]

human HTT protein = assay: Pharmacodynamic study in Hu97/18 mice, HTT protein in tissues, CSF and plasma; assay type: in vivo
Protocol: Test mice were euthanised and brain, muscle (quadriceps), and blood samples were harvested 2 hours after the last dose on Day 20. Prior to analysis, crude total protein from brain and muscle tissue samples was prepared by sample lysis in MSD® assay buffer 1 (MSD®) with Complete™ Protease Inhibitor Cocktail added (Roche Diagnostics). Tissues were then homogenised using TissueLyser II (Qiagen) plus a 5 mm stainless steel bead. The lysate was clarified by centrifugation at 16,000×g for 20 minutes at 4° C. and the total protein concentration quantified with the Pierce™ BCA Protein Assay Kit (Thermo Scientific) according to the manufacturer's instructions. Whole blood was collected by cardiac puncture into EDTA collection tubes. An aliquot (100-200 μL) was added to 1.5 mL of eBioscience™ 1× Red Blood Cell Lysis Buffer (Thermo Fisher) and mixed well for 5 minutes before collecting the white blood cells (WBC) by centrifugation at 400×g. The supernatant was discarded, and the pellet of WBCs was frozen in liquid nitrogen and stored at −70° C. Brain and muscle sample lysates were analysed for hHTT and KRAS protein expression using the ECL protein assay (described previously); using the same method WBC samples were also analysed for hHTT expression but not KRAS.
Hu97/Hu18: Both sexes of 2-4 month old Hu97/181 mice were used. […]

mouse HTT protein = assay: Mouse HTT protein expression under compound treatment; assay type: cell-based; details: at concentrations that reduce human HTT protein expression
HTT mRNA = assay: RT-qPCR of HTT mRNA in HD patient B lymphocytes (GM04856); assay type: cell-based, human
Protocol: B lymphocytes (GM04856 cells) were plated in 6-well plates at 5×10^5 cells/well in 2 mL of 10% FBS, DMEM and incubated for 6 hours (37° C., 5% CO2, 100% relative humidity). Cells were then treated with HTT-C1 at 125 nM (in 0.5% DMSO) in triplicate for 24 hours. RNA was purified with the RNeasy Mini Kit (Qiagen) according to the manufacturer's protocol. Samples were prepared for RT-PCR (described previously) using 0.04 μL of each primer (at 100 μM). For reverse transcription and PCR, the following steps were performed: RT step: 48° C. (15 min); PCR steps: Step 1: 95° C. (10 min), Step 2: 95° C. (30 sec), Step 3: 55° C. (30 sec), Step 4: 68° C. (1 min); Steps 2 to 4 were repeated for 34 cycles, then held at 4° C. PCR products were separated on 2% agarose E-gels, stained with ethidium bromide and visualized using a UVP gel imager.
To test if the small molecule-induced spliced transcripts are unstable due to nonsense-mediated decay (NMD), GM04856 lymphoblast cells were treated with cycloheximide (CHX). First cells were treated with DMSO or 250 nM HTT-C1 for 18 h. DMSO or 10 uM CHX was then added, and cells harvested for RNAs after 2 h, 4 h, and 8 h.

CC1(C)CC(Oc2ccc(-c3ccc(-c4cn[nH]c4)cc3O)nn2)CC(C)(C)N1 [HTT-C2]
plasma exposure [1]: superior exposure to HTT-C1

CCN1CCC(c2cc3c(F)cc(-c4cc(C)c5nc(C)cn5n4)cc3nn2)CC1 [HTT-D3]
HTT protein in striatum and cortex (human HTT protein; 2, 6 or 12 mg/kg daily for 21 days): uniform HTT protein reduction
HTT protein within the brain and peripheral tissues (human HTT protein; Hu97/18 mice): dose dependent and more equitable lowering of HTT protein

CC1(C)CC(Oc2ccc(-c3ccc(-c4ccnc(O)c4)cc3O)nn2)CC(C)(C)N1 [HTT-C1]
mouse HTT protein expression (mouse HTT protein): no effect
reduction in HTT mRNA (RT-qPCR) (HTT mRNA; 250 nM, GM04856 lymphoblast cells, 18 h plus 2-8 h): ~80%
lowering of the amount of HTT mRNA as compared to the DMSO control (HTT mRNA; 24-hour treatment, 125 nM, B-lymphocytes from an HD patient): about 85%
